These results are taken from patent US20150225454A1, “TETRABRANCHED PEPTIDES AND ANALOGUES AS A NEW CLASS OF ANTIMICROBIALS AND THEIR PREPARATION THEREOF” (priority 2012, published 2015).

The structures appear in SMILES notation. Where a SMILES comes first, the peptide text is derived from it. Bridges are numbered along the chain shown (N, C = ends). Roman numbers before positions name the chains, in order.

For this experiment, the system named is IOBA-NHC cells. Type of experiment: cell-based, human. Conditions: 24 h. As to the method: IOBA-NHC cells were cultured under standard conditions (humidified atmosphere of 5% CO2 at 37° C.) in DMEM/F12 supplemented with 1 μg/ml bovine pancreas insulin, 2 ng/ml mouse epidermal growth factor, 0.1 μg/ml cholera toxin, […] hydrocortisone, 10% fetal bovine serum (FBS), 50 UI/ml penicillin, and 50 UI/ml streptomycin. Cells from passages 50-80 were used in all experiments. Every day, normal culture development was observed by phase-contrast microscopy. Cells were removed by gentle trypsin incubation at confluence and counted. They were seeded into 96 well culture plates (Corning, Schiphol-Rijk, The Netherlands) for microtitration analysis of flow cytotoxicity assay (˜10,000 cells/well). Cultures were kept at 37° C. for 24 h. Subconfluent cells (culture surface covering nearly 70%) were then exposed to various peptide concentrations (0.22-225 μM). Cytotoxicity was measured periodically using MultiTox-Fluor Multiplex assay kit (Promega, Wis., USA) by measuring the AFC fluorescence (λex=485 and λem=520 nm).
Take `CC(C)[C@H](NC(=O)[C@H](C)NC(=O)[C@H](C)NC(=O)CNC(=O)[C@@H](N)CCCNC(=N)N)C(=O)N[C@H](C(=O)N[C@@H](CCCNC(=N)N)C(=O)N[C@@H](CCCNC(=N)N)C(=O)NCCCC[C@H](NC(=O)[C@H](CCCNC(=N)N)NC(=O)[C@H](CCCNC(=N)N)NC(=O)[C@@H](NC(=O)[C@@H](NC(=O)[C@H](C)NC(=O)[C@H](C)NC(=O)CNC(=O)[C@@H](N)CCCNC(=N)N)C(C)C)C(C)C)C(=O)NCCCC[C@H](NC(=O)[C@H](CCCCNC(=O)[C@H](CCCNC(=N)N)NC(=O)[C@H](CCCNC(=N)N)NC(=O)[C@@H](NC(=O)[C@@H](NC(=O)[C@H](C)NC(=O)[C@H](C)NC(=O)CNC(=O)[C@@H](N)CCCNC(=N)N)C(C)C)C(C)C)NC(=O)[C@H](CCCNC(=N)N)NC(=O)[C@H](CCCNC(=N)N)NC(=O)[C@@H](NC(=O)[C@@H](NC(=O)[C@H](C)NC(=O)[C@H](C)NC(=O)CNC(=O)[C@@H](N)CCCNC(=N)N)C(C)C)C(C)C)C(=O)N[C@@H](CCCCN)C(=O)O)C(C)C` [[(SEQ ID NO: 10)2K]2KK] (I: H-RGAAVVRRKKK-OH / II: H-RGAAVVRRK / III: H-RGAAVVRR / IV: H-RGAAVVRR; amide I:9-IV:C, I:10-II:C, II:9-III:C; N-terminus and C-terminus assumed): the midpoint of the response, the EC50, lay at 250 µM.
Next, `CC(C)[C@H](NC(=O)[C@H](C)NC(=O)[C@H](C)NC(=O)[C@H](C)NC(=O)CNC(=O)[C@@H](N)CCCNC(=N)N)C(=O)N[C@@H](CCCNC(=N)N)C(=O)N[C@@H](CCCNC(=N)N)C(=O)NCCCC[C@H](NC(=O)[C@H](CCCNC(=N)N)NC(=O)[C@H](CCCNC(=N)N)NC(=O)[C@@H](NC(=O)[C@H](C)NC(=O)[C@H](C)NC(=O)[C@H](C)NC(=O)CNC(=O)[C@@H](N)CCCNC(=N)N)C(C)C)C(=O)NCCCC[C@H](NC(=O)[C@H](CCCCNC(=O)[C@H](CCCNC(=N)N)NC(=O)[C@H](CCCNC(=N)N)NC(=O)[C@@H](NC(=O)[C@H](C)NC(=O)[C@H](C)NC(=O)[C@H](C)NC(=O)CNC(=O)[C@@H](N)CCCNC(=N)N)C(C)C)NC(=O)[C@H](CCCNC(=N)N)NC(=O)[C@H](CCCNC(=N)N)NC(=O)[C@@H](NC(=O)[C@H](C)NC(=O)[C@H](C)NC(=O)[C@H](C)NC(=O)CNC(=O)[C@@H](N)CCCNC(=N)N)C(C)C)C(=O)N[C@@H](CCCCN)C(=O)O` [[(SEQ ID NO: 14)2K]2KK] (I: H-RGAAAVRRKKK-OH / II: H-RGAAAVRRK / III: H-RGAAAVRR / IV: H-RGAAAVRR; amide I:9-IV:C, I:10-II:C, II:9-III:C; N-terminus and C-terminus assumed): > 257 µM; `CC(C)[C@H](NC(=O)[C@H](C)NC(=O)[C@H](CCCNC(=N)N)NC(=O)CNC(=O)[C@@H](N)CCCNC(=N)N)C(=O)N[C@H](C(=O)N[C@@H](CCCNC(=N)N)C(=O)N[C@@H](CCCNC(=N)N)C(=O)NCCCC[C@H](NC(=O)[C@H](CCCNC(=N)N)NC(=O)[C@H](CCCNC(=N)N)NC(=O)[C@@H](NC(=O)[C@@H](NC(=O)[C@H](C)NC(=O)[C@H](CCCNC(=N)N)NC(=O)CNC(=O)[C@@H](N)CCCNC(=N)N)C(C)C)C(C)C)C(=O)NCCCC[C@H](NC(=O)[C@H](CCCCNC(=O)[C@H](CCCNC(=N)N)NC(=O)[C@H](CCCNC(=N)N)NC(=O)[C@@H](NC(=O)[C@@H](NC(=O)[C@H](C)NC(=O)[C@H](CCCNC(=N)N)NC(=O)CNC(=O)[C@@H](N)CCCNC(=N)N)C(C)C)C(C)C)NC(=O)[C@H](CCCNC(=N)N)NC(=O)[C@H](CCCNC(=N)N)NC(=O)[C@@H](NC(=O)[C@@H](NC(=O)[C@H](C)NC(=O)[C@H](CCCNC(=N)N)NC(=O)CNC(=O)[C@@H](N)CCCNC(=N)N)C(C)C)C(C)C)C(=O)N[C@@H](CCCCN)C(=O)O)C(C)C` [Peptide B4010-K4A] (I: H-RGRAVVRRKKK-OH / II: H-RGRAVVRRK / III: H-RGRAVVRR / IV: H-RGRAVVRR; amide I:9-IV:C, I:10-II:C, II:9-III:C): > 231 µM.
Next, `C[C@H](NC(=O)[C@H](C)NC(=O)[C@H](CCCNC(=N)N)NC(=O)CNC(=O)[C@@H](N)CCCNC(=N)N)C(=O)N[C@@H](C)C(=O)N[C@@H](CCCNC(=N)N)C(=O)N[C@@H](CCCNC(=N)N)C(=O)NCCCC[C@H](NC(=O)[C@H](CCCNC(=N)N)NC(=O)[C@H](CCCNC(=N)N)NC(=O)[C@H](C)NC(=O)[C@H](C)NC(=O)[C@H](C)NC(=O)[C@H](CCCNC(=N)N)NC(=O)CNC(=O)[C@@H](N)CCCNC(=N)N)C(=O)NCCCC[C@H](NC(=O)[C@H](CCCCNC(=O)[C@H](CCCNC(=N)N)NC(=O)[C@H](CCCNC(=N)N)NC(=O)[C@H](C)NC(=O)[C@H](C)NC(=O)[C@H](C)NC(=O)[C@H](CCCNC(=N)N)NC(=O)CNC(=O)[C@@H](N)CCCNC(=N)N)NC(=O)[C@H](CCCNC(=N)N)NC(=O)[C@H](CCCNC(=N)N)NC(=O)[C@H](C)NC(=O)[C@H](C)NC(=O)[C@H](C)NC(=O)[C@H](CCCNC(=N)N)NC(=O)CNC(=O)[C@@H](N)CCCNC(=N)N)C(=O)N[C@@H](CCCCN)C(=O)O` [[(SEQ ID NO: 16)2K]2KK] (I: H-RGRAAARRKKK-OH / II: H-RGRAAARRK / III: H-RGRAAARR / IV: H-RGRAAARR; amide I:9-IV:C, I:10-II:C, II:9-III:C; N-terminus and C-terminus assumed): 169 µM; `CC(C)[C@H](NC(=O)[C@H](CCCCN)NC(=O)[C@H](CCCNC(=N)N)NC(=O)CNC(=O)[C@@H](N)CCCNC(=N)N)C(=O)N[C@H](C(=O)N[C@@H](C)C(=O)N[C@@H](CCCNC(=N)N)C(=O)NCCCC[C@H](NC(=O)[C@H](CCCNC(=N)N)NC(=O)[C@H](C)NC(=O)[C@@H](NC(=O)[C@@H](NC(=O)[C@H](CCCCN)NC(=O)[C@H](CCCNC(=N)N)NC(=O)CNC(=O)[C@@H](N)CCCNC(=N)N)C(C)C)C(C)C)C(=O)NCCCC[C@H](NC(=O)[C@H](CCCCNC(=O)[C@H](CCCNC(=N)N)NC(=O)[C@H](C)NC(=O)[C@@H](NC(=O)[C@@H](NC(=O)[C@H](CCCCN)NC(=O)[C@H](CCCNC(=N)N)NC(=O)CNC(=O)[C@@H](N)CCCNC(=N)N)C(C)C)C(C)C)NC(=O)[C@H](CCCNC(=N)N)NC(=O)[C@H](C)NC(=O)[C@@H](NC(=O)[C@@H](NC(=O)[C@H](CCCCN)NC(=O)[C@H](CCCNC(=N)N)NC(=O)CNC(=O)[C@@H](N)CCCNC(=N)N)C(C)C)C(C)C)C(=O)N[C@@H](CCCCN)C(=O)O)C(C)C` [Peptide B4010-R7A] (I: H-RGRKVVARKKK-OH / II: H-RGRKVVARK / III: H-RGRKVVAR / IV: H-RGRKVVAR; amide I:9-IV:C, I:10-II:C, II:9-III:C): > 237 µM.
